Where two headings read alike, the source gives them in different places.
What was measured:
[1] = tested on: thrombin formation after resupply; experiment: Synthetic coagulation proteome, resupply response (therapeutic anticoagulation); type: biochemical, human
Protocol: (§1) Synthetic Coagulation Model—The procedure used is a modification of Lawson et al. [Lawson, J. H., Kalafatis, M., Stram, S., and Mann, K. G. (1994) J. Biol. Chem. 269, 23357-23366] and van't Veer et al. [van't Veer, C. and Mann, K. G. (1997) J. Biol. Chem. 272, 4367-4377]. Relipidated Tf at 5 pM final concentration was added to a mixture of fII, fV, fVII, fVIIIa, fVIII, fIX, fX, fXI, TFPI, and AT (all at mean physiologic concentrations) (43) in 20 mM HEPES/150 mM NaCl (HBS) with 2 mM CaCl2 containing 2 μM PCPS. Pharmacologic agents were incorporated into the reaction mixture prior to addition of the Tf reagent. Resupply was conducted at 20 min post Tf initiation by the addition of an equal volume of a freshly constituted, Tf free mixture containing procofactors, zymogens and inhibitors in HBS with 2 mM CaCl2 and 2 μM PCPS to an ongoing reaction. Pharmacologic agents were present in the resupply mixture at twice their final concentration.
(§2) Thrombin generation over time was measured in a chromogenic assay using Spectrozyme TH and a THERMOmax microplate reader (Molecular Devices Corp., Menlo Park, Calif.). In experiments assessing the reversible thrombin inhibitor DAPA, rates of thrombin generation were calculated by reference to a standard curve relating thrombin concentration to rates of substrate hydrolysis in the presence of relevant DAPA concentrations.
Therapeutic Anticoagulation—We have previously reported that one outcome in closed model systems of Tf-initiated coagulation is the formation of a relatively stable prothrombin activating potential which responds to the introduction of a new supply of reactants with an immediate burst of thrombin production, i.e., a “resupply response” (see U.S. application Ser. No. 10/507,661). There is shown in FIGS. 32A-D and 33A-D computational (FIGS. 32A,C; FIGS. 33A,C) and representative empirical (FIGS. 32B,D; FIGS. 33B,D) assessments of the efficacy of each anticoagulant in suppressing the resupply response. Computational and empirical time courses of thrombin formation are shown for the final 5 min of the Tf-initiated process and for the resupply phase.

prothrombin = experiment: Western blot of prothrombin consumption during resupply in the synthetic coagulation proteome; type: biochemical, human
Protocol: Gel Electrophoresis and Western Blotting—Resupply time course samples were quenched into an equal volume of 50 mM EDTA, 50 μM FPRck in HBS and 4 μl aliquots (potentially containing 100 ng prothrombin) were made 2% in SDS and 2% in β-mercaptoethanol and analyzed by SDS-PAGE. Protein species were separated on 4 to 12% linear gradient gel and transferred to nitrocellulose membranes (Bio-Rad Laboratories Inc., US). FII and its activation products were probed for using a polyclonal burro anti-human prethrombin 1 antibody. Reactive bands were detected using goat anti-equine horseradish peroxidase conjugated IgG (Southern Biotechnology, Birmingham Ala.) with a chemiluminescence reagent (Perkin Elmer, Boston Mass.) and Kodak X-OMat film.
Prothrombin Consumption during Resupply—In FIGS. 32B, 32D and 33D, the estimates of UFH, Fpx and DAPA efficacy potentially represent a combination of 2 modes of anticoagulant action: their relative reactivity toward preformed catalytic complexes and their direct inhibition of thrombin formed during the reaction. […]

[2] = tested on: Tf-initiated thrombin formation; experiment: Synthetic coagulation proteome, Tf-initiated thrombin generation (prophylactic anticoagulation); type: biochemical, human
From the text: Materials—Human coagulation fVII, fX, fIX, and prothrombin (fII), were isolated from fresh frozen plasma using the methods of Bajaj et al., and were purged of traces of active enzymes. FXI was purified using the monoclonal anti-fXI antibody α-fXI-2. Human fV and AT were isolated from freshly frozen plasma. The following were provided as gifts: recombinant fVIII and recombinant Tf (residues 1-242); recombinant human fVIIa; and recombinant full-length tissue factor pathway inhibitor (TFPI). Corn trypsin inhibitor (CTI) was isolated from popcorn. The preparation of the Tf/lipid reagent was performed. 1,2-Dioleolyl-sn-Glycero-3-Phospho-L-Serine (PS) and 1,2-Dioleoyl-sn-Glycero-3-Phosphocholine (PC) were purchased from Avanti Polar Lipids, Inc (Alabaster, Ala.), and EDTA was purchased from Sigma (St Louis, Mo.). Phospholipid vesicles (PCPS) composed of 75% PC and 25% PS and were prepared.
as §1, §2
Incorporation of Anticoagulants into the Mathematical Model—FIG. 27 presents the sets of equations describing the mechanisms of action of each of the anticoagulants used in this study and FIG. 28 presents the rate constants controlling the identified bimolecular interactions and the dosing ranges recommended for prophylactic and therapeutic applications. Details of modeling the various anticoagulant interactions are described herein and in the Methods section. Prophylactic Anticoagulation—There is shown in FIGS. 30A and 30 C computational assessments and in FIGS. 30B and D empirical assessments of the efficacy of each anticoagulant in suppressing the onset of Tf-initiated thrombin formation. In both empirical and computational studies, a 5 pM Tf reagent stimulus was used and thrombin generation assessed over 20 min. Results are presented that compare thrombin generation in the absence of anticoagulant (♦) to that observed over the range of anticoagulant concentrations that drive the transition from partial to maximum suppression of thrombin formation. […]

[3] = biological target: thrombin and meizotirombin (mIIa); conditions: cited from earlier work
[4] = tested on: contact pathway inhibited blood; experiment: Contact pathway inhibited whole blood, resupply; type: biochemical, human; conditions: 160 nM C921-78
From the text: (§3) Whole Blood Model—The protocol used is a modification of Rand et al. [Orfeo, T., Butenas, S., Brummel-Ziedins, K. E., and Mann, K. G. (2005) J. Biol. Chem. 280, 42887-42896; Rand, M. D., Lock, J. B., van't Veer, C., Gaffney, D. P., and Mann, K. G. (1996) Blood 88, 3432-3445]. A healthy donor was recruited, advised according to a protocol approved by the University of Vermont Human Studies Committee and their consent was obtained. […] Blood was drawn by venipuncture and immediately delivered into the reagent-loaded tubes. In general, 2 sets of aliquots of CTI treated blood were initiated with […] Tf reagent. One set was quenched at 1 min intervals while the other was incubated for 20 min. […] This resupply blood contained CTI alone (0.1 mg/ml), CTI+2 uM fondaparinux or CTI+320 nM C921-78. After the experiment, the tubes are centrifuged and the supernatants are aliquoted and analyzed for TAT levels. A subset of tubes containing either Fpx or C921-78 were initiated with 5 pM Tf reagent, quenched at 20 min and analyzed for TAT levels.
(§4) Anticoagulant Efficacy in Whole Blood—To test whether results from the computational and proteome based analyses would extrapolate to a more complex empirical model, the efficacy of anticoagulants in suppressing thrombin generation was addressed in contact pathway inhibited blood in both Tf-initiated and resupply regimens. […]

fXa in prothrombinase = fXa in prothrombinase (Homo sapiens, UniProt P00742); conditions: cited from earlier work
[5] = tested on: contact pathway inhibited blood; experiment: Contact pathway inhibited whole blood, Tf-initiated TAT formation; type: biochemical, human; conditions: increasing concentrations incorporated into blood prior to Tf (5 pM)
From the text: as §3, §4

fXa = fXa (Homo sapiens, UniProt P00742); conditions: cited from earlier work
[6] = Light scattering measurement of Protein S depolymerization on Ca++ addition; type: physicochemical
From the text: Open squares: commercial PS and closed squares: in-house PS.
In regards to Protein S (PS) a Tf-based assay for PS in CTI-inhibited recalcified PS deficient plasma was developed. […] Dilutions of a normal plasma pool fall on this curve (open symbols). […] The convergence of plasma dilution data with the purified protein curve lends support of the preservation of natural PS quality in the material we isolate. The rate of depolymerization of Ca^++ free PS upon addition of Ca^++ using light scattering (FIG. 26B) was evaluated.

fVIIa = biological target: T1, fVIIa (Homo sapiens, UniProt P08709); experiment: Factor VIIa titrations of Tf proteins in the absence of lipid; type: biochemical; conditions: in complex with fVIIa, Tf 0.1 nM, no lipid
T1 construct: Novo Nordisk (gift)
Protocol: FIG. 24 is a graphical view of factor VIIa titrations of recombinant Tf (rTf) 1-263, rTf 1-242 and human placental Tf (all at 0.1 nM) in the absence of lipid.
Reports of physical studies of Tf have made use of SDS-PAGE, amino acid analyses and presumed stoichiometry of binding. In a most recent review, a Tf molecular weight of 47 kDa is cited, introducing a 30% error for any experimental physical parameter regarding Tf and its interactions. Tf proteins are distinguished by functional activities in simple as well as in complex reaction systems (FIGS. 24, 25).

thrombin generation = experiment: Thrombin generation in reconstituted coagulation platelet proteome; type: biochemical, human
From the text: FIG. 25 is a graphical view of thrombin generation in synthetic plasma with platelets (2×10^8/ml). Notice monocyte in situ and monocyte purified.

T1 sequence (P08709 213-466 limits assumed, one chain of several): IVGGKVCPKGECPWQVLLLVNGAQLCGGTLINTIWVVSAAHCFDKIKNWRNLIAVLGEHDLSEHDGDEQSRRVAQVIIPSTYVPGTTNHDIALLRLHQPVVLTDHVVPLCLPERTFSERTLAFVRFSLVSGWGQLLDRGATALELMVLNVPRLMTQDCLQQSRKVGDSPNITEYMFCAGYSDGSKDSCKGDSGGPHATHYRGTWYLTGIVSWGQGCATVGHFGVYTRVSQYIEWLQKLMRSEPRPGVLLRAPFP
T1 sequence (P08709 61-212 partner limits assumed, one chain of several): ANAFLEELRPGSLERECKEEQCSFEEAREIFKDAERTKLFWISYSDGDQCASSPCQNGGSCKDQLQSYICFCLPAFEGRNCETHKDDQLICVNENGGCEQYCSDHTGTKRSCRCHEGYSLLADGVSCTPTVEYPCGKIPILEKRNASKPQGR
Chain of fXa (P00742 235-488 limits assumed): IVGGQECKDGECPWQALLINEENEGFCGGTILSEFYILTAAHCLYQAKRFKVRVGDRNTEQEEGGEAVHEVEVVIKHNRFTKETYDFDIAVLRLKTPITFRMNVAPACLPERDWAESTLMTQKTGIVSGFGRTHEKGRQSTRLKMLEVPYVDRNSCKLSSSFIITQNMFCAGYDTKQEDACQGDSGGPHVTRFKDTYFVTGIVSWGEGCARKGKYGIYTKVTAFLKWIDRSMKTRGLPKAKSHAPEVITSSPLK
Chain of fXa (P00742 41-179 partner limits assumed): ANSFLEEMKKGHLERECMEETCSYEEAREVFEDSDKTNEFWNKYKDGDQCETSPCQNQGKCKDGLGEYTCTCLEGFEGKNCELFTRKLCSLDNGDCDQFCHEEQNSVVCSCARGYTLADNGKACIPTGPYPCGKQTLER
Chain of fXa in prothrombinase (P00742 235-488 limits assumed): as the sequence (P00742 235-488 limits assumed) above
Chain of fXa in prothrombinase (P00742 41-179 partner limits assumed): as the sequence (P00742 41-179 partner limits assumed) above
Chain of fXa in prothrombinase (P12259 29-737 partner limits assumed): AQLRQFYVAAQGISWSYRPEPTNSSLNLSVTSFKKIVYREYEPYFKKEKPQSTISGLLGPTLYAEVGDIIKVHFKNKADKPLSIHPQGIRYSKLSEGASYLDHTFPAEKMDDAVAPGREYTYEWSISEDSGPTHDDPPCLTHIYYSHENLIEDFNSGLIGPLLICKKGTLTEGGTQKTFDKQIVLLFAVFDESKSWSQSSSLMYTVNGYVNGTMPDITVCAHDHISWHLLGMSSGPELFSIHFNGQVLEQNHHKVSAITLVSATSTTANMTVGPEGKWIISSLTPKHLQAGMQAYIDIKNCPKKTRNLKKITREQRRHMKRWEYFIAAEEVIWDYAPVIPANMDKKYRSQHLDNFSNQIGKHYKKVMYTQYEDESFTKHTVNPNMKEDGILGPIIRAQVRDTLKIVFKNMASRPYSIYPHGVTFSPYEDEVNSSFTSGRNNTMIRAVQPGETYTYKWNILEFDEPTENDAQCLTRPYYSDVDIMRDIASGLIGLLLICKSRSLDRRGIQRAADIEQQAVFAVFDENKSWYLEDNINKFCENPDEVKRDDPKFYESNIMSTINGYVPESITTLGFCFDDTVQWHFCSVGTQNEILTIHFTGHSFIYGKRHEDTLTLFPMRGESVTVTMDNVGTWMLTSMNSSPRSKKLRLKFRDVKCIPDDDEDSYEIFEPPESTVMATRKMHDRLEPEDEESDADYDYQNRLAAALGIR
Chain of fXa in prothrombinase (P12259 1574-2224 partner limits assumed): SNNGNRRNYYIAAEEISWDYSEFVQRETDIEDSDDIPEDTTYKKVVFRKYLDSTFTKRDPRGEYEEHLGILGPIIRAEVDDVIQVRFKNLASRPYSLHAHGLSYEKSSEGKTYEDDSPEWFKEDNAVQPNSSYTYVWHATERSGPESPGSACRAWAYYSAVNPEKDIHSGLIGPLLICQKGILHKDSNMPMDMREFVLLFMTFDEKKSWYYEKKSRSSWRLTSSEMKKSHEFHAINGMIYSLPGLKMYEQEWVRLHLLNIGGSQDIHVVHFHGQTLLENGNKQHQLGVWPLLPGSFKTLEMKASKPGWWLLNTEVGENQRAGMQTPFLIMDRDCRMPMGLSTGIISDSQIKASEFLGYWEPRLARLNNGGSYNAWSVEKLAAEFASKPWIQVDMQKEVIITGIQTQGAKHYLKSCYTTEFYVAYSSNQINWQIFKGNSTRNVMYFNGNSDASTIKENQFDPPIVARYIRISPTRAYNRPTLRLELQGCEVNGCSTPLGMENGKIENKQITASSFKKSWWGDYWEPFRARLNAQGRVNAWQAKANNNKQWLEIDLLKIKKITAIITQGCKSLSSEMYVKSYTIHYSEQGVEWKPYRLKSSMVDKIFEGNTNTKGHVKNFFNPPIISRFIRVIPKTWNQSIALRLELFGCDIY

CCC1CCN(C(=O)C(CCCNC(=N)N)NS(=O)(=O)c2cccc3c(N(C)C)cccc23)CC1 (stereo not shown) [DAPA, dansylarginine-N-[3-ethyl-1,5-pentanediyl]amide]
difference in rate or maximum final level of IIa=DAPA between the 2 DAPA concentrations ([1]; 10 μM vs 100 μM DAPA): No substantial difference in rate or maximum final level
blocking prothrombin consumption in the resupply format (prothrombin; DAPA): completely ineffective
effect on prothrombin consumption ([2]; 20 μM DAPA): only attenuating the maximum rate of prothrombin consumption
total prothrombin consumption ([2]; 100 μM DAPA): ~20 nM
Kd ([3]; thrombin and meizothrombin): 20 to 40 nM
Kd ([3]; value used in the model (FIG. 27)): 40 nM

N=C(N)NCCCC(NS(=O)(=O)c1ccccc1)C(=O)NCC(=O)NC(CCCNC(=N)N)C(=O)c1nccs1 [C921-78, Benzenesulfonyl-D-Arg-Gly-Arg-ketothiazole]
maximum thrombin levels ([1]; 70 nM C921-78): 35 nM
time of maximum thrombin level post resupply ([1]; 70 nM C921-78): 4 min
maximum thrombin levels ([1]; 100 nM C921-78): ~25 nM
time of maximum thrombin level post resupply ([1]; 100 nM C921-78): 10 min
delay of thrombin generation ([1]; 160 nM C921-78): 11 min
maximum thrombin levels ([1]; 160 nM C921-78): 14 nM
prothrombin consumption at 15 min (prothrombin; 160 nM C921-78, densitometric analyses): ~10%
displacing the onset of thrombin generation ([2]; 1 nM C921-78): somewhat more effective than computationally predicted
effects on maximum rate and concentrations of IIa ([2]; 1 nM C921-78): minimal effects
thrombin generation ([2]; 10 nM C921-78): completely suppressed
prothrombin consumption (immunoblots) [4]: minimal
Kd (fXa in prothrombinase): 0.022 nM
TAT levels at 20 min [5]: decreases in TAT levels
Kd (fXa): ~0.014 nM

commercial preparation of PS (ERL): commercial preparation of Protein S (ERL)
depolymerization behavior ([6]; commercial preparation (ERL)): does not show this depolymerization behavior

placental Tf: natural human placental tissue factor isolated by monoclonal antibody procedure
Kd compared with the recombinant proteins (fVIIa): lower Kd
Vmax compared with the recombinant proteins (fVIIa): higher Vmax

PS: purified in-house Protein S preparation
half time of depolymerization of Ca++ free PS upon addition of Ca++ ([6]; 25° C.): approximately 100 s

B1: monocyte Tf: tissue factor from THP-1 monocytes after stimulation with LPS (protein, UniProt P13726 33-295, looked up)
Tissue factor: SGTTNTVAAYNLTWKSTNFKTILEWEPKPVNQVYTVQISTKSGDWKSKCFYTTDTECDLTDEIVKDVKQTYLARVFSYPAGNVESTGSAGEPLYENSPEFTPYLETNLGQPTIQSFEQVGTKVNVTVEDERTLVRRNNTFLSLRDVFGKDLIYTLYYWKSSSSGKKTAKTNTNEFLIDVDKGENYCFSVQAVIPSRTVNRKSTDSPVECMGQEKGEFREIFYIIGAVVFVVIILVIILAISLHKCRKAGVGQSWKENSPLNVS
activity relative to monocyte Tf reconstituted on synthetic membranes (thrombin generation): ~400 ×

From patent US20090298103A1, “Predicting hemostatic risk; dependence on plasma composition” (The University of Vermont and State Agriculture College, priority 2008, published 2009)
